Data as given in patent US20240016874A1, “COMPOSITIONS AND METHODS FOR PREVENTING AND TREATING CORONAVIRUSES” (priority 2020, published 2024).
Like-named read-outs stand apart in the source and are kept apart here.

Assays:
[1] = test system: SARS-CoV-2 MLV-PP infecting Expi-293F-ACE2 cells
[2] = test system: SARS-CoV-2 MLV-PP infecting Expi-293F-ACE2 cells; test: microbe, parasite or virus in culture; conditions: Severe acute respiratory syndrome coronavirus 2, read-out: IC50 of thymoquinone, SARS-CoV-2-PP infection

SMILES: C[C@@H]1CCO[C@H]2Cn3cc(C(=O)NCc4ccc(F)cc4F)c(=O)c(O)c3C(=O)N12 [dolutegravir, reference compound]
- inhibition of SARS-CoV-2 MLV-PP [1]: potent inhibitor

SMILES: COc1cnc(-n2cnc(C)n2)c2[nH]cc(C(=O)C(=O)N3CCN(C(=O)c4ccccc4)CC3)c12 [temsavir, reference compound]
- inhibition of SARS-CoV-2 MLV-PP infecting Expi-293F-ACE2 cells [1]: does not inhibit

SMILES: CC1=CC(=O)C(C(C)C)=CC1=O [thymoquinone]
- block of the viral infection [1]: block the viral infection
- cell toxicity at high concentrations [1]: can cause cell death
- concentration that blocks SARS-CoV-2-MLV-PP infection without any cell toxicity [1]: 1 to 10 µM
- increased effectiveness on adding black seed oil to thymoquinone [1]: about 16.0%
- IC50 ([1]; read-out: IC50 of thymoquinone, SARS-CoV-2-PP infection): 3.6 µM
- IC50 [2]: 4.3 µM
